Measured values: PubChem BioAssay AID192 (DTP/NCI, 2004)
Where “and” joins values, the source holds several entries; their conditions need not be identical. Identical values can stand only once. Inconclusive results and toxic doses are left out.

System: BDF1 mice, B16 melanoma ip, median survival T/C
Experiment: NCI In Vivo Anticancer Drug Screen. Data for tumor model B16 Melanoma (intraperitoneal) in B6D2F1 (BDF1) mice
Conditions: endpoint: median survival time, higher = longer survival
How it was run: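 Tumor-bearing mice received test compound or vehicle. Survival or tumor size was then measured in both groups. The treated-group figure was divided by the control-group figure.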

[1] = dose: 100.0 mg/kg/injection, schedule: Q01DX009 (ip), vehicle: Klucel (hydroxypropylcellulose) (HPC)

SMILES: Nc1nc2c(ncn2C2OC(CO)C(O)C2O)c(=O)[nH]1.Nc1nc2c(ncn2C2OC(CO)C(O)C2O)c(=O)[nH]1.[NH2-].[NH2-].[Pt+2] (centres undefined)
- T/C (dose: 6.25 mg/kg/injection, schedule: Q01DX009 (ip), vehicle: water): 100 % of control and 108 % of control
- T/C (dose: 12.5 mg/kg/injection, schedule: Q01DX009 (ip), vehicle: water): 98 % of control and 114 % of control
- T/C (dose: 25.0 mg/kg/injection, schedule: Q01DX009 (ip), vehicle: water): 117 % of control
- T/C (dose: 50.0 mg/kg/injection, schedule: Q01DX009 (ip), vehicle: water): 109 % of control
- T/C (dose: 100.0 mg/kg/injection, schedule: Q01DX009 (ip), vehicle: water): 160 % of control
- T/C (dose: 200.0 mg/kg/injection, schedule: Q01DX009 (ip), vehicle: water): 151 % of control and 170 % of control

SMILES: COc1cccc2c1C(=O)c1c(O)c3c(c(O)c1C2=O)C[C@@](O)(C(=O)COC(=O)c1cccnc1)C[C@@H]3OC1CC(N)C(O)C(C)O1 (some centres undefined)
- T/C (dose: 0.19 mg/kg/injection, schedule: Q01DX001 (ip), vehicle: water): 92 % of control
- T/C (dose: 0.38 mg/kg/injection, schedule: Q01DX001 (ip), vehicle: water): 101 % of control
- T/C (dose: 0.75 mg/kg/injection, schedule: Q01DX001 (ip), vehicle: water): 108 % of control
- T/C (dose: 3.0 mg/kg/injection, schedule: Q01DX001 (ip), vehicle: water): 113 % of control and 239 % of control and 249 % of control
- T/C (dose: 6.0 mg/kg/injection, schedule: Q01DX001 (ip), vehicle: water): 103 % of control and 250 % of control and 255 % of control
- T/C (dose: 12.0 mg/kg/injection, schedule: Q01DX001 (ip), vehicle: water): 251 % of control and 323 % of control
- T/C (dose: 24.0 mg/kg/injection, schedule: Q01DX001 (ip), vehicle: water): 325 % of control

SMILES: CC1CCC(NC(=O)N(CCCl)N=O)CC1 (centres undefined)
- T/C (dose: 0.5 mg/kg/injection, schedule: Q01DX009 (ip), vehicle: other): 104 % of control
- T/C (dose: 0.5 mg/kg/injection, schedule: Q01DX009 (ip), vehicle: saline + alcohol): 95 % of control
- T/C (dose: 1.0 mg/kg/injection, schedule: Q01DX009 (ip), vehicle: other): 112 % of control
- T/C (dose: 1.0 mg/kg/injection, schedule: Q01DX009 (ip), vehicle: saline + alcohol): 113 % of control
- T/C (dose: 1.9 mg/kg/injection, schedule: Q01DX001 (ip), vehicle: saline): 106 % of control
- T/C (dose: 2.0 mg/kg/injection, schedule: Q01DX009 (ip), vehicle: distilled water + Tween-80 + alcohol): 103 % of control
- T/C (dose: 2.0 mg/kg/injection, schedule: Q01DX009 (ip), vehicle: other): 111 % of control
- T/C (dose: 2.0 mg/kg/injection, schedule: Q01DX009 (ip), vehicle: saline + alcohol): 118 % of control
- T/C (dose: 2.5 mg/kg/injection, schedule: Q04DX003 (ip), vehicle: other): 109 % of control
- T/C (dose: 3.75 mg/kg/injection, schedule: Q01DX001 (ip), vehicle: saline): 117 % of control
- T/C (dose: 3.75 mg/kg/injection, schedule: Q04DX003 (ip), vehicle: other): 112 % of control and 123 % of control
- T/C (dose: 4.0 mg/kg/injection, schedule: Q01DX009 (ip), vehicle: distilled water + Tween-80 + alcohol): 108 % of control
- T/C (dose: 4.0 mg/kg/injection, schedule: Q01DX009 (ip), vehicle: saline + alcohol): 150 % of control
- T/C (dose: 5.0 mg/kg/injection, schedule: Q04DX003 (ip), vehicle: other): 124 % of control
- T/C (dose: 7.5 mg/kg/injection, schedule: Q04DX003 (ip), vehicle: other): 212 % of control
- T/C (dose: 8.0 mg/kg/injection, schedule: Q01DX009 (ip), vehicle: distilled water + Tween-80 + alcohol): 184 % of control
- T/C (dose: 8.0 mg/kg/injection, schedule: Q01DX009 (ip), vehicle: other): 200 % of control
- T/C (dose: 8.0 mg/kg/injection, schedule: Q01DX009 (ip), vehicle: saline + alcohol): 72 % of control
- T/C (dose: 9.0 mg/kg/injection, schedule: Q04DX002 (ip), vehicle: Klucel (hydroxypropylcellulose) (HPC)): 121 % of control
- T/C (dose: 10.0 mg/kg/injection, schedule: Q04DX003 (ip), vehicle: other): 189 % of control
- T/C (dose: 15.0 mg/kg/injection, schedule: Q04DX002 (ip), vehicle: Klucel (hydroxypropylcellulose) (HPC)): 150 % of control
- T/C (dose: 15.0 mg/kg/injection, schedule: Q04DX003 (ip), vehicle: other): 94 % of control and 272 % of control
- T/C (dose: 16.0 mg/kg/injection, schedule: Q01DX009 (ip), vehicle: distilled water + Tween-80 + alcohol): 51 % of control
- T/C (dose: 16.0 mg/kg/injection, schedule: Q01DX009 (ip), vehicle: other): 50 % of control
- T/C (dose: 16.0 mg/kg/injection, schedule: Q01DX009 (ip), vehicle: saline + alcohol): 45 % of control
- T/C (dose: 20.0 mg/kg/injection, schedule: Q04DX003 (ip), vehicle: other): 263 % of control
- T/C (dose: 24.0 mg/kg/injection, schedule: Q01DX001 (ip), vehicle: distilled water + Tween-80 + alcohol): 161 % of control
- T/C (dose: 25.0 mg/kg/injection, schedule: Q04DX002 (ip), vehicle: Klucel (hydroxypropylcellulose) (HPC)): 196 % of control
- T/C (dose: 30.0 mg/kg/injection, schedule: Q04DX003 (ip), vehicle: other): 50 % of control and 55 % of control
- T/C (dose: 32.0 mg/kg/injection, schedule: Q01DX009 (ip), vehicle: other): 37 % of control
- T/C (dose: 32.0 mg/kg/injection, schedule: Q01DX009 (ip), vehicle: saline + alcohol): 31 % of control
- T/C (dose: 40.0 mg/kg/injection, schedule: Q01DX001 (ip), vehicle: distilled water + Tween-80 + alcohol): 182 % of control
- T/C (dose: 42.0 mg/kg/injection, schedule: Q04DX002 (ip), vehicle: Klucel (hydroxypropylcellulose) (HPC)): 213 % of control
- T/C (dose: 64.0 mg/kg/injection, schedule: Q01DX009 (ip), vehicle: other): 27 % of control
- T/C (dose: 64.0 mg/kg/injection, schedule: Q01DX009 (ip), vehicle: saline + alcohol): 26 % of control
- T/C (dose: 66.7 mg/kg/injection, schedule: Q01DX001 (ip), vehicle: distilled water + Tween-80 + alcohol): 63 % of control

SMILES: C1CC[N-]CC1.CC(=N\O)/C(C)=N/O.CC(=N\O)/C(C)=N/O.[CH3-].[Co+2]
- T/C (dose: 25.0 mg/kg/injection, schedule: Q01DX009 (ip), vehicle: Klucel (hydroxypropylcellulose) (HPC)): 105 % of control
- T/C (dose: 50.0 mg/kg/injection, schedule: Q01DX009 (ip), vehicle: Klucel (hydroxypropylcellulose) (HPC)): 91 % of control
- T/C [1]: 88 % of control

SMILES: NOCc1cccc(CON)c1
- T/C (dose: 12.5 mg/kg/injection, schedule: Q04DX003 (ip), vehicle: saline): 123 % of control
- T/C (dose: 25.0 mg/kg/injection, schedule: Q04DX003 (ip), vehicle: saline): 118 % of control
- T/C (dose: 50.0 mg/kg/injection, schedule: Q04DX003 (ip), vehicle: saline): 115 % of control

SMILES: O=C(CC(=O)C(F)(F)F)c1csc2ccccc12
- T/C (dose: 12.5 mg/kg/injection, schedule: Q01DX009 (ip), vehicle: saline with Tween-80): 102 % of control
- T/C (dose: 25.0 mg/kg/injection, schedule: Q01DX009 (ip), vehicle: saline with Tween-80): 97 % of control
- T/C (dose: 50.0 mg/kg/injection, schedule: Q01DX009 (ip), vehicle: saline with Tween-80): 114 % of control

SMILES: COC(=O)C1CCC[N+](C)(C)C1 (centres undefined)
- T/C (dose: 12.5 mg/kg/injection, schedule: Q01DX009 (ip), vehicle: saline): 100 % of control
- T/C (dose: 25.0 mg/kg/injection, schedule: Q01DX009 (ip), vehicle: saline): 100 % of control
- T/C (dose: 50.0 mg/kg/injection, schedule: Q01DX009 (ip), vehicle: saline): 91 % of control

SMILES: Nc1cccc2c1C(=O)c1cccc(NC(=O)c3ccccc3)c1C2=O
- T/C [1]: 90 % of control
- T/C (dose: 200.0 mg/kg/injection, schedule: Q01DX009 (ip), vehicle: Klucel (hydroxypropylcellulose) (HPC)): 106 % of control
- T/C (dose: 400.0 mg/kg/injection, schedule: Q01DX009 (ip), vehicle: Klucel (hydroxypropylcellulose) (HPC)): 90 % of control
